Like-named read-outs stand apart in the source and are kept apart here.
Key:
[1] = tested on: 7-methoxyresorufin O-dealkylase activity; assay: Induction of 7-methoxyresorufin O-demethylase activity in tuber slices; assay type: cell-based, Helianthus tuberosus; conditions: 48 hours of treatment
Procedure: Slices of dormant tuber of Helianthus tuberosus were placed under survival conditions in oxygenated distilled water and stirred with a current of compressed air in the presence of various metals or organic compounds (effectors).
A control was performed with DMSO alone.

CYP76B1 [2] = target: T1, CYP76B1 (Helianthus tuberosus, UniProt O23976); assay: biochemical; conditions: for ΔAmax × 10^−3: at saturating ligand concentration
T1 sequence (O23976 1-490): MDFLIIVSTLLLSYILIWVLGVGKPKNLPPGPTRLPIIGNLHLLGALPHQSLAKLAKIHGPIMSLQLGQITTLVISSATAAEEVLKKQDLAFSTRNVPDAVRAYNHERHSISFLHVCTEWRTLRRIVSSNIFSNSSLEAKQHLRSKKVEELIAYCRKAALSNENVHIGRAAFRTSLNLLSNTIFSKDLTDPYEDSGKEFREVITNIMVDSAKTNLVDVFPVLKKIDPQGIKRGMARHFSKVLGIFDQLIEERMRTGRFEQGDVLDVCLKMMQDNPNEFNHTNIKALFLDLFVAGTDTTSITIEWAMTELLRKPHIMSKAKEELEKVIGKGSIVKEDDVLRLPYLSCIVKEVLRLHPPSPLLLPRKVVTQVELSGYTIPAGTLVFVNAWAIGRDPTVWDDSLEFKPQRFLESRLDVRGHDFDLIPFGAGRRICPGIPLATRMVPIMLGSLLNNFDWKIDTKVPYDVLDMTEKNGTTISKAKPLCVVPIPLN
Procedure: (§1) Spectrophotometric measurements of P450 content and substrate binding were performed as in (Gabriac et al., 1991) and SDS-PAGE was performed as in Gabriac et al. (34). Gels were stained with Coomassie Blue R-250. Alkoxycoumarins and alkoxyresorufins O-dealkylation was measured by fluorometry (Werck-Reichhart et al., 1990). The data are means ± S.D. of triplicates.
The binding of substrates into the catalytic site of a P450 usually induces a shift of its maximum of absorbance, redox potential and iron spin state (Raag and Poulos, 1989) resulting from the displacement of the water sixth ligand of the heme iron. It is easily detected by differential spectrophotometry as a so-called type I spectrum with a peak at 390 nm and a trough at 420 nm (Jefcoate, 1978). The variation of the differential absorbance ΔA390-420 versus substrate concentration allows the calculation of an apparent dissociation constant (Ks). A high ΔAmax induced by the ligand is usually an indication of correct positioning for catalysis.
CYP76B1 was 60 nM in the assays. Difference spectra were recorded after the addition of increasing concentrations of ligands to the sample cuvette. An equal volume of the herbicide solvent (DMSO) was added to the reference. Ks and ΔAmax at saturating ligand concentration were calculated from the double-reciprocal plots of ΔA(390-420 nm) versus substrate concentrations.

CYP76B1 [3] = target: T1, CYP76B1; assay: CYP76B1-dependent metabolism (O-/N-dealkylation) in microsomes of transformed yeast; conditions: for metabolite detection for endogenous molecules: transformed WAT11 yeast microsomes; for Activity: + NADPH; for turnover of the dealkylation: for phenylureas first dealkylation; for conversion / dealkylation by CYP76B1: transformed yeast microsomes, NADPH
Procedure: BamHI and EcoRI sites were introduced by PCR just upstream of the ATG and downstream of the stop codon of the CYP76B1 coding sequence, using the primers 5′-[…] (sense) 5′-[…] (reverse) (SEQ ID NO 3 and SEQ ID NO 4 respectively). The PCR mixture was preheated for 2 min at 92° C. before addition of 1 unit of Pfu DNA polymerase (Stratagene). After 3 min additional heating at 92° C., 30 cycles of amplification were carried out as follows 1 min denaturation at 92° C., 1 min annealing at 52° C., 2 min extension at 72° C. The reaction was completed by 10 min extension at 72° C. After BamHI/EcoRI digestion, the 1470 bp coding sequence was inserted into the vector pYeDP60 (32). Transformation of Saccharomyces cerevisiae W(R), WAT11 and WAT21, and yeast growth were conducted according to Pompon et al. (32). Yeast microsomes were prepared as described in Pierrel et al. (33) with addition of 1% SAB, 2 mM β-mercaptoethanol, 10 mM sodium disulfite and 1 mM PMSF to the extraction buffer. When indicated, 0.5 mM δ-aminolevulinic acid methyl ester (Sigma) was added to the induction medium, or cells were stored at 4° C. for 24 h before preparation of the microsomes.
as §1
The conversion of other molecules was assayed by TLC or HPLC analysis of polar metabolites formed from radiolabeled compounds (Cabello-Hurtado et al., 1998a, b). NADPH-cytochrome c reductase was assayed according to (Benveniste et al., 1986). Kinetic data were fitted using the nonlinear regression program […] (Duggleby, 1984).
10 μL of non-immune serum or of serum raised against purified ECOD fraction were preincubated 2 min at room temperature with 10 μL of microsomes before addition of the reaction mix. n.d.: not detectable.
Conversion was estimated from the sum of the two polar metabolites detected after TLC analysis. Data are means + S.D. of two to four determinations. n.d.: not detected.
CYP76B1 concentrations in the MCOD, ECOD, MROD and EROD fluorometric assays were 1.5 nM or 2.1 nM, depending on the coexpressed ATR1 or yeast reductases. In the CTUDM assays, CYP76B1 concentrations were 1.7 nM (ATR1) and 8 nM (yeast), respectively. It was 12 nM for the determination of the catalytic parameters of monodemethyl-CTUDM, and 1.7 nM (ATR1) or 20 nM (yeast) in the IPUDM assays. Products were quantified by direct TLC analysis of 100 μL of the acidified incubation medium after 6 min incubation at 30° C. for the CTUDM and IPUDM assays, and after 9 min incubation for the monodemethyl-CTUDM.

[4] = read-out: KS (apparent dissociation constant), CYP76B1 60 nM, ΔA(390-420 nm) double-reciprocal plots
[5] = coexpressed reductase ATR1 (WAT11)
[6] = coexpressed yeast reductase (W(R))

O=C1OC(=O)c2cccc3cccc1c23 [naphthalic anhydride, 1,8-Naphthalic anhydride]
induction of 7-methoxyresorufin O-dealkylase activity [1]: very strongly induced

CON(C)C(=O)Nc1ccc(Br)cc1 [Metobromuron]
Kd (CYP76B1 [2]; [4]): 6.2 µM

CC1=CC(=O)CC(C)(C)C1(O)/C=C/C(C)=C\C(=O)O (stereo not shown) [abcisic acid]
metabolite detection for endogenous molecules (CYP76B1 [3]): No metabolite

COc1cc(/C=C/C(=O)O)ccc1O [ferulate, ferulic acid]
metabolite detection for endogenous molecules (CYP76B1 [3]): No metabolite

Cl[C@H]1[C@H](Cl)[C@@H](Cl)[C@@H](Cl)[C@H](Cl)[C@H]1Cl [lindane]
induction of 7-methoxyresorufin O-dealkylase activity [1]: very strongly induced

COc1ccc2ccc(=O)oc2c1 [7-methoxycoumarin, 7-Methoxycoumarin]
Activity (CYP76B1 [3]; W(R) strain): 10.9 pkat mg-1 protein
turnover of the dealkylation (CYP76B1 [3]; W(R) strain): 13 min⁻¹
Activity (CYP76B1 [3]; WAT11 strain): 16.4 pkat mg-1 protein
turnover of the dealkylation (CYP76B1 [3]; WAT11 strain): 31 min⁻¹

CCCCCCCCCCCC(=O)O [lauric, lauric acid]
metabolite detection for endogenous molecules (CYP76B1 [3]): No metabolite

COc1cc2oc(=O)ccc2cc1O [isoscopoletin]
metabolite detection for endogenous molecules (CYP76B1 [3]): No metabolite

CC/C=C\C/C=C\C/C=C\CCCCCCCC(=O)O [linolenic, linolenic acid]
metabolite detection for endogenous molecules (CYP76B1 [3]): No metabolite

COc1cc2ccc(=O)oc2cc1O [scopoletin]
metabolite detection for endogenous molecules (CYP76B1 [3]): No metabolite

Cc1ccc2cc3c(ccc4ccccc43)c3c2c1CC3 [3-methylcholanthrene]
induction of 7-methoxyresorufin O-dealkylase activity [1]: very strongly induced

CCCCCCCC/C=C\CCCCCCCC(=O)O [oleic, oleic acid]
metabolite detection for endogenous molecules (CYP76B1 [3]): No metabolite

CCCCCCCCCCCCCCCC(=O)O [palmitic, palmitic acid]
metabolite detection for endogenous molecules (CYP76B1 [3]): No metabolite

C=C(CC[C@@H](C)[C@H]1CC[C@@]2(C)C3=C(CC[C@]12C)[C@@]1(C)CC[C@H](O)[C@@H](C)[C@@H]1CC3)C(C)C [obtusifoliol]
metabolite detection for endogenous molecules (CYP76B1 [3]): No metabolite

CON(C)C(=O)Nc1ccc(Br)c(Cl)c1 [Chlorbromuron]
Kd (CYP76B1 [2]): 5.3 µM
ΔAmax × 10^−3 (CYP76B1 [2]; CYP76B1 60 nM): 6.7 × 10^−3
conversion / dealkylation by CYP76B1 (CYP76B1 [3]): dealkylates

CON(C)C(=O)Nc1ccc(Cl)cc1 [Monolinuron]
Kd (CYP76B1 [2]): 4.8 µM
conversion / dealkylation by CYP76B1 (CYP76B1 [3]): dealkylates

O=C1C[C@@H](c2ccc(O)cc2)Oc2cc(O)cc(O)c21 [naringenin]
metabolite detection for endogenous molecules (CYP76B1 [3]): No metabolite

Metoxuron
ΔAmax × 10^−3 (CYP76B1 [2]; CYP76B1 60 nM): 6.1 × 10^−3
Kd (CYP76B1 [2]; [4]): 117 µM

COc1c2occc2cc2ccc(=O)oc12 [8-methoxypsoralen]
induction of 7-methoxyresorufin O-dealkylase activity [1]: very strongly induced

O=C(O)c1ccccc1 [benzoate, Benzoic acid]
metabolite detection for endogenous molecules (CYP76B1 [3]): No metabolite

CCOc1ccc2nc3ccc(=O)cc-3oc2c1 [7-ethoxyresorufin]
Activity (CYP76B1 [3]; W(R) strain): 5.1 pkat mg-1 protein
turnover of the dealkylation (CYP76B1 [3]; W(R) strain): 6 min⁻¹
Activity (CYP76B1 [3]; WAT11 strain): 11.6 pkat mg-1 protein
turnover of the dealkylation (CYP76B1 [3]; WAT11 strain): 22 min⁻¹
Kcat (CYP76B1 [3]; [5]): 0.467 s⁻¹
Km (CYP76B1 [3]; [5]): 0.17 µM

CCCCCCCCCC(=O)O [capric, capric acid]
metabolite detection for endogenous molecules (CYP76B1 [3]): No metabolite

mercury
induction of 7-methoxyresorufin O-dealkylase activity [1]: very strongly induced

CCCCC/C=C\C/C=C\CCCCCCCC(=O)O [linoleic, linoleic acid]
metabolite detection for endogenous molecules (CYP76B1 [3]): No metabolite

c1ccc2c(c1)cc1ccc3cccc4ccc2c1c34 [benzo(a)pyrene]
induction of 7-methoxyresorufin O-dealkylase activity [1]: very strongly induced

O=C(O)/C=C/c1ccccc1 [cinnamate, trans-Cinnamic acid]
metabolite detection for endogenous molecules (CYP76B1 [3]): No metabolite

CNC(=O)Nc1ccc(C)c(Cl)c1 [monodemethyl-chlortoluron]
Kcat (CYP76B1 [3]; [5]): 0.767 s⁻¹
Km (CYP76B1 [3]; [5]): 81 µM
conversion / dealkylation by CYP76B1 (CYP76B1 [3]): actively dealkylated

CCCCC(CC)COC(=O)c1ccccc1C(=O)OCC(CC)CCCC (stereo not shown) [diethylhexylphthalate]
induction of 7-methoxyresorufin O-dealkylase activity [1]: very strongly induced

CC(C)c1ccc(NC(=O)N(C)C)cc1 [Isoproturon, N-(4-isopropylphenyl)-N′,N′-dimethylurea]
Kd (CYP76B1 [2]): 55 µM
ΔAmax × 10^−3 (CYP76B1 [2]; CYP76B1 60 nM): 8.2 × 10^−3
Activity (CYP76B1 [3]; W(R) strain): 128 pkat mg-1 protein
turnover of the dealkylation (CYP76B1 [3]; W(R) strain): 40 min⁻¹
Activity (CYP76B1 [3]; WAT11 strain): 475 pkat mg-1 protein
turnover of the dealkylation (CYP76B1 [3]; WAT11 strain): 147 min⁻¹
Kcat (CYP76B1 [3]; [5]): 2.45 s⁻¹
Kcat (CYP76B1 [3]; [6]): 0.667 s⁻¹

CCCCCCCCCCCCCC(=O)O [myristic, myristic acid]
metabolite detection for endogenous molecules (CYP76B1 [3]): No metabolite

COc1ccc2nc3ccc(=O)cc-3oc2c1 [7-methoxyresorufin]
Activity (CYP76B1 [3]; W(R) strain): 12.6 pkat mg-1 protein
turnover of the dealkylation (CYP76B1 [3]; W(R) strain): 15 min⁻¹
Activity (CYP76B1 [3]; WAT11 strain): 18.6 pkat mg-1 protein
turnover of the dealkylation (CYP76B1 [3]; WAT11 strain): 41 min⁻¹
Kcat (CYP76B1 [3]; [5]): 0.683 s⁻¹
Km (CYP76B1 [3]; [5]): 0.17 µM
Kcat (CYP76B1 [3]; coexpressed reductase ATR2): 0.717 s⁻¹
Km (CYP76B1 [3]; coexpressed reductase ATR2): 0.185 µM
Kcat (CYP76B1 [3]; [6]): 0.25 s⁻¹
Km (CYP76B1 [3]; [6]): 0.23 µM
